The source made the active and inactive calls. Some results are limits rather than exact numbers.

Assay [1] can be described thus: viability of uninfected HEp-2 cells – cell-based, HTS, cytotoxicity control for RSV inhibitor project, dose response (AID 2410). The format is functional. The note with it: human respiratory syncytial virus.
Assay [2] in a line: antiviral protection against BTV-induced cell death – arbovirus, BSR cells, confirmation (AID 1250).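 Further: protection from viral cytopathic effect measured as cell viability by ATP luminescence.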 The format is functional.
Assay [3] has as its target Neuropeptide Y receptor type 2 (Homo sapiens, UniProt P49146). The format is functional, cell-based.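 Further: HEK293 cells expressing the receptor and a CNG channel; stimulus was NPY near EC95 followed by isoproterenol to raise cAMP; antagonist potency measured as restoring cAMP signal that NPY suppresses.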
In assay [4] the target is Neuropeptide Y receptor type 1 (Homo sapiens, UniProt P25929). The format is functional.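 Further: HEK293 cells with a CNG channel challenged with NPY then isoproterenol; potency as antagonist that reverses NPY suppression of cAMP signal.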
Sequence of Neuropeptide Y receptor type 1 (P25929 whole entry): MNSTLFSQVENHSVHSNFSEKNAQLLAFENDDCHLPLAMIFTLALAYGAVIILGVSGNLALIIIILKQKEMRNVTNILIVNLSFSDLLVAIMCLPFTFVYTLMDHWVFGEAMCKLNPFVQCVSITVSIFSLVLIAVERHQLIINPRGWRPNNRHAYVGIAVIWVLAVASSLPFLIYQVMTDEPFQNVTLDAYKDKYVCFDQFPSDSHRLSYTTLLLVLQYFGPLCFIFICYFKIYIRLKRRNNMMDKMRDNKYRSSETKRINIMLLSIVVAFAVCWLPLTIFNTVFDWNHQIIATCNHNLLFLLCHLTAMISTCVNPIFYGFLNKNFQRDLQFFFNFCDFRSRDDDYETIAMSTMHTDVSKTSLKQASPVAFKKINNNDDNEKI
Assay [5] concerns the target Luciferin 4-monooxygenase (Photinus pyralis, UniProt P08659). As to the kind of experiment: In vitro luciferase assay using purified luciferase. [Related pubchem assays: 1299, 1270, 1295, 1375, 1287, 1281, 1293, 1291, 1289, 1280, 465, 1364, 1282, 1372, 1365, 1370, 1367, 1366, 1266, 1373, 1292, 1290, 1302, 1371, 1283, 1271, 1294, 1374, 1368, 1369 ].
Assay [6] deals with HEK293. Put plainly: Cytotoxicity assay in HEK293 cells. [Related pubchem assays (depositor defined):AID1266, AID1269, AID1270, AID1271, AID1280, AID1281, AID1282, AID1283, AID1287, AID1289, AID1290, AID1291, AID1292, AID1293, AID1294, AID1295, AID1299, AID1302, AID1364, AID1365, AID1366, AID1367, AID1369, AID1370, AID1371, AID1372, AID1373, AID1374, AID1375, AID1384 …. The format is functional, cell-based. The note with it: Homo sapiens.

The subject of assay [7] is HEK293. Put plainly: PMA/Ionomycin induced NF-kB luciferase assay in 293- NF-kB-Luc stable cells. [Related pubchem assays: 1299, 1270, 1295, 1375, 1287, 1281, 1293, 1291, 1289, 1280, 465, 1364, 1282, 1372, 1365, 1370, 1367, 1366, 1269, 1373, 1292, 1290, 1302, 1371, 1283, 1271, 1294, 1374, 1368, 1369 ]. The format is functional, cell-based. The note with it: Homo sapiens.

A short description of assay [8]: M. tuberculosis H37Rv growth inhibitors, H37Rv strain (AID 1626). The format is functional.
Assay [9] concerns the target Serine/threonine-protein phosphatase (Homo sapiens, UniProt Q9BPW0). Put plainly: Counterscreen for inhibitors of PP1: fluorescence-based biochemical high throughput dose response assay to identify inhibitors of Protein Phosphatase 5 (PP5). [Related pubchem assays: 2034 (Summary (PP5 inhibitors)), 1987 (PP5 inhibitors in singlate), 2235 (PP1 inhibitors in singlate)].

The subject of assay [10] is Streptococcus sp. 'group A'. Put plainly: Streptococcus pyogenes SK(-)GAS viability under kanamycin – luminescence, BacTiterGlo, confirmation, counter-screen for streptokinase expression inhibitor project, dose response (AID 1900). The format is functional, organism-based.
For the next assay, the target named is T1, Streptokinase A (Streptococcus pyogenes serotype M1, UniProt P10520).
T1 sequence (P10520 whole entry): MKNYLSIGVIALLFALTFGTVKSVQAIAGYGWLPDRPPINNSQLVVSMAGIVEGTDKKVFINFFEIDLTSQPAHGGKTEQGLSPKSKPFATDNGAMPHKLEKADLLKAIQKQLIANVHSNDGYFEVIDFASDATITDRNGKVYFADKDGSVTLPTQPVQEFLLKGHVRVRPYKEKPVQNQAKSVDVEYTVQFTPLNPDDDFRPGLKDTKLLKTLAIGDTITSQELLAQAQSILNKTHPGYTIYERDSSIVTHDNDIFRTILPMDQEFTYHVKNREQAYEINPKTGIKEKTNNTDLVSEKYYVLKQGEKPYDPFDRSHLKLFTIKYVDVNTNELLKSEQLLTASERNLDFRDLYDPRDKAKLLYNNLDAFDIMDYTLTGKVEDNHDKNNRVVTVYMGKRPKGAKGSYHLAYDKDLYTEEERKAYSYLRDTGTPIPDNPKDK
Put plainly: viability-normalized secreted streptokinase activity reduction – plasminogen activation absorbance, OD405, dose response (AID 1914).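 Further: secreted streptokinase activity via plasminogen activation per viability signal from cell pellet.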 The format is functional, Streptococcus pyogenes M1 GAS.

Assay [11] addresses Serine/threonine-protein phosphatase PP1-alpha catalytic subunit (Homo sapiens, UniProt P62136). Put plainly: inhibition of protein phosphatase 1 activity – biochemical, fluorescence, dose response (AID 2403).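 Further: phosphatase turnover of OMFP into fluorescent 3-O-methylfluorescein.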
Another assay has as its system Streptococcus. Put plainly: GAS UMAA2166 growth inhibition – luminescence, BacTiterGlo, counter-screen for streptokinase expression inhibitor project, dose response (AID 1915).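 Further: potency for reduction of bacterial viability or growth.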 The format is functional, organism-based.
Assay [12] can be described thus: viability of PTEN-deleted HCT116 cells – cell-based, HCT116 PTEN knockout, dose response (AID 1047).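 Further: HCT116 colon tumor cells with PTEN knocked out; cells exposed to compound for 60 hours before readout; potency for loss of cell viability measured by luminescence.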 The format is functional.
Assay [13] can be described thus: viability of HCT116 lacking mutant beta-catenin – cell-based, human colon tumor, dose response (AID 1045).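 Further: HCT116 colon tumor cells with beta catenin knocked out; cells exposed to compound for 60 hours.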 The format is functional.
Assay [14] relates to Vero. Put plainly: Vero 76 cell viability after compound exposure – Vero 76 cells, synthesized analogs, cytotoxicity control for West Nile virus antiviral project, SAR follow-up (AID 2414). The format is functional. Particulars: Chlorocebus sabaeus.
Assay [15] is described as follows: A Cell Based Assay for the Identification of Probe candidate Compounds with Anti- Venezuelan Equine Encephalitis virus. [Related pubchem assays: 2409, 2419, 1621, 2238, 2405, 2024, 2065, 2402, 2414, 1635, 1650, 2244 ]. The format is functional.
The subject of assay [16] is Vero. As to the kind of experiment: Vero cell viability after compound exposure – synthesized analogs, set II, cytotoxicity control for West Nile virus antiviral project, SAR follow-up (AID 2402). The format is functional. Particulars: Chlorocebus sabaeus.
For assay [17], the system named is Vero. As to the kind of experiment: host cell viability loss, Vero E6 – synthesized analogs, cytotoxicity control for West Nile virus antiviral project, SAR follow-up (AID 2244). The format is functional. The note with it: Chlorocebus sabaeus.
A further assay concerns the target T2, Estrogen receptor (Homo sapiens, UniProt P03372).
T2 sequence (P03372 whole entry): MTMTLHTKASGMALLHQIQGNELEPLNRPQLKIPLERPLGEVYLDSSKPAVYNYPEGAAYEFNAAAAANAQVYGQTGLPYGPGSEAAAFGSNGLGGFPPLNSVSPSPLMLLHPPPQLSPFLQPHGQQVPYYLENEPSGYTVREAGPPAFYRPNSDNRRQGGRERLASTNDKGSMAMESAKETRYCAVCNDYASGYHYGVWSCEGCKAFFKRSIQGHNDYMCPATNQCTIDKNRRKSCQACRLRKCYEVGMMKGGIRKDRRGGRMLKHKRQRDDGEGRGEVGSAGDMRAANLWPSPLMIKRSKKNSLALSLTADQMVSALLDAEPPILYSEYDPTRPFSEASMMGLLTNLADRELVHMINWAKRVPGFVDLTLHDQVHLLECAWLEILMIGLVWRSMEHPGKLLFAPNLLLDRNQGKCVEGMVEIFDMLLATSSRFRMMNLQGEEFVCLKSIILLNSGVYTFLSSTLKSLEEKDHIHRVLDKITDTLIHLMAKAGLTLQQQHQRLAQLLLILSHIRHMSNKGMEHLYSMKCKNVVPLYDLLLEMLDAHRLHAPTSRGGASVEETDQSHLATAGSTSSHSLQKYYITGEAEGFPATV
Put plainly: ERα coactivator recruitment enhancers – biochemical, TR-FRET, ERα LBD, dose response (AID 737).

Sequence of Serine/threonine-protein phosphatase PP1-alpha catalytic subunit (P62136 whole entry): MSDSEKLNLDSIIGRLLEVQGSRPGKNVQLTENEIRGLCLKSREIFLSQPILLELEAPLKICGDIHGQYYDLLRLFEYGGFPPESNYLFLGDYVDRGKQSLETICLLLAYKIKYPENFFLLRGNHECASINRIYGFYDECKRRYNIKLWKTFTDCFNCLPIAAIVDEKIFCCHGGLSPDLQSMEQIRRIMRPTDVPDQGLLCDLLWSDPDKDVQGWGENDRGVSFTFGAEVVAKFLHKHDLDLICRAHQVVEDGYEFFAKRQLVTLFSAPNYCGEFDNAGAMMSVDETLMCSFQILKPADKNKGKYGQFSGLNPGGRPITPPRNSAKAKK
Sequence of Luciferin 4-monooxygenase (P08659 whole entry): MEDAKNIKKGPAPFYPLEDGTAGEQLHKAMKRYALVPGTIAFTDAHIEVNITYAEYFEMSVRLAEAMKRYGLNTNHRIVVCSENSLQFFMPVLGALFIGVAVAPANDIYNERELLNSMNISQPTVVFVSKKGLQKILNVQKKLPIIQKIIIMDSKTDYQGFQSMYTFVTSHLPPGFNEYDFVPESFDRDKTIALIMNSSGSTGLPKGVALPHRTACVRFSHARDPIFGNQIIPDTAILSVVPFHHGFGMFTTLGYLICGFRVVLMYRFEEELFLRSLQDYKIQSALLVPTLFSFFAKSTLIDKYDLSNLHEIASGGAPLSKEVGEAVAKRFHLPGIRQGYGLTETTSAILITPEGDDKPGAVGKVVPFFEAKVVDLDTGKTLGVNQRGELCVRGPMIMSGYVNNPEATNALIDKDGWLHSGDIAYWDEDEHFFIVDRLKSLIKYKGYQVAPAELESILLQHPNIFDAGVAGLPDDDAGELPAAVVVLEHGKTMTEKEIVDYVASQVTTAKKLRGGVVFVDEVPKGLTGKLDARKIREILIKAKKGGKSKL
Sequence of Neuropeptide Y receptor type 2 (P49146 whole entry): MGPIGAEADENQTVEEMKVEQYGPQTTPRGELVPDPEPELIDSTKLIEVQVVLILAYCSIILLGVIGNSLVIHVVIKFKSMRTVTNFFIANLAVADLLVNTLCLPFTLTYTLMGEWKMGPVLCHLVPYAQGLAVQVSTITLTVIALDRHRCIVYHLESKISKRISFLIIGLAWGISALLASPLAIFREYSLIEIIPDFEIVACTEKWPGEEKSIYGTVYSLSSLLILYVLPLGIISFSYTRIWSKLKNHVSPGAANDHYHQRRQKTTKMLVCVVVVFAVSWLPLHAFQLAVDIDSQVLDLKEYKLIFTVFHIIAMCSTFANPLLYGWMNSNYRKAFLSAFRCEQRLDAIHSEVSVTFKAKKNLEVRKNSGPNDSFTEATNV
Sequence of Serine/threonine-protein phosphatase (Q9BPW0 whole entry): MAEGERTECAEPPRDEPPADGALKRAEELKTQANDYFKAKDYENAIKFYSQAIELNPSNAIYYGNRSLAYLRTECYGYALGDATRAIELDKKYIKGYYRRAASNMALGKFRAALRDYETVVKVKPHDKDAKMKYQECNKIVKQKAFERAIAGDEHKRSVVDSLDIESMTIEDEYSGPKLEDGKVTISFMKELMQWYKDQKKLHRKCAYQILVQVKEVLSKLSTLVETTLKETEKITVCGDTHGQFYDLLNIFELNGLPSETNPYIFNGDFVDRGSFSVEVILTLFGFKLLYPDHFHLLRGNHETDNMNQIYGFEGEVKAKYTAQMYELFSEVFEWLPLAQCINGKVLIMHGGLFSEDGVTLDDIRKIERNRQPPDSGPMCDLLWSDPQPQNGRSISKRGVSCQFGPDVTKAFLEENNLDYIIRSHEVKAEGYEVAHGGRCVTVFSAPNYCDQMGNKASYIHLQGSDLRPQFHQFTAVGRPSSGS

Turning to `COc1ccc(-c2nc(NC(=O)c3nnc(O)c4ccccc34)sc2C)cc1`, the CC50 in assay [1] is 40.5 µM (active). The IC50 in assay [2] was > 100 µM (active).
On to `COc1ccccc1OCCCCN1CCN(C(c2ccccc2)c2ccccc2)CC1`, for which the IC50 in assay [3] and in assay [4] was > 35 µM (not active) each time.
In the case of `COc1ccc(/C=N/NC(=O)c2n[nH]c3c2CCC3)cc1O`, the concentration giving a half-maximal response (EC50) was > 8 µM (not active) in assay [5], > 8 µM (inactive) in the assay on HEK293 [6] and 4.21 µM (not active) with HEK293 [7].
`O=C(COC(=O)/C=C/c1nc2ccccc2s1)Nc1cccc(Cl)c1Cl`: in assay [8], the IC50 is > 100 µM (active).
Consider `COc1cnc(-c2ccccn2)nc1Sc1ccc(Cl)cc1`, for which the half-maximal inhibitory concentration (IC50) in assay [9] is > 67 µM (not active); in assay [11], 6.47 µM (active). For the same compound, the EC50 in [10] is 9.35 µM (active); at Streptokinase A it was > 150 µM (not active); in the assay on Streptococcus, 15.3 µM (active); in [12], 21.6 µM (active); in assay [13], 18.6 µM (active).
As to `COc1cccc(C(NC(=O)c2ccccc2)c2ccc3cccnc3c2O)c1` (stereo not given), the CC50 in the assay on Vero [14] is 6.07 µM (active); in the assay with Vero [16], 2.2 µM (active); in the assay on Vero [17], 1.94 µM (active). Besides, the half-inhibitory concentration (IC50) in assay [15] is 5.63 µM (active).
With `O=C(Cn1ncc2c(=O)oc3ccccc3c21)Nc1nc2ccccc2s1`, on Estrogen receptor, the concentration giving a half-maximal response (EC50) is 6.23 µM (active).

For the origin of these results see ChEMBL document CHEMBL1201862, “PubChem BioAssay data set” (2004).
